From patent publication US6313179A, “Treatment of hyperproliferative skin disorders with C18 to C20 aliphatic alcohols” (Avanir Pharmaceuticals, priority 1998, dated 2001)
Where two headings read alike, the source gives them in different places.

Experiments:
Human keloid fibroblasts [1] = test: Proliferation study, keloid cells (Example 3); format: cell-based; conditions: 3 mM
Experimental: (§1) Human keloid fibroblasts, normal control skin fibroblasts and Vero cells were obtained from ATCC. n-Docosanol (30 mM) was suspended in Pluronic F-68 (1.2 mM) as described previously (Katz et al., ibid). A vehicle control was prepared using the same procedure except for the omission of n-docosanol. Radiolabeled n-[1-^14 C] docosanol suspension was prepared as described by Katz et al. (ibid.). Cells were resuspended in 1.2×10^6 cells/ml in DMEM supplemented with 10% fetal calf serum, sodium pyruvate, L-glutamine and penicillin-streptomycin. Cell suspension (0.5 ml) was added to each 35 mm well containing 1.3 ml media, followed by addition of 0.2 ml radiolabeled n-docosanol suspension (final n-docosanol concentration=3 mM). After 24 hours at 37° C. in humidified 10% CO2, the suspension was removed, wells were washed extensively with saline and cells were solubilized for scintillation counting by incubation with 0.5 ml trypsin for 15 min at 37° C. Solubilized cells were counted in a Beckman LS6000 scintillation counter. Samples were corrected for nonspecific binding to plates by subtracting values obtained in control wells lacking cells. To determine cell number, duplicate plates were treated with non-radiolabeled n-docosanol or control suspension at the same concentration or were left untreated. The number of viable cells was determined by trypan blue staining.

keloid cells = test: Comparison of n-docosanol effect between keloid and normal cells: keloid cells (Example 2); format: cell-based, Human; conditions: 15 mM; for inhibition at 15000 µM / activity at 15000 µM: Homo sapiens; for inhibition at 15000 µM: read-out: inhibition of number of keloid cells per well; for activity at 15000 µM / cells/well: Table 2; for activity at 15000 µM: compared to cells incubated with no addition, read-out: % control
Experimental: Human keloid fibroblasts were obtained from the American Type Culture Collection (Rockville, Md.) (CRL 1762). n-Docosanol (300 mM) was suspended in the nonionic surfactant Pluronic F-68 (12 mM) as described previously (Katz et al., Proc. Natl. Acad. Sci. U.S.A., 88:10825-10829, 1991, hereby incorporated by reference). A vehicle control was prepared using the same procedure except n-docosanol was omitted. Keloid cells (2.7×10^4per well) were added to 16 mm wells containing DMEM supplemented with 10% fetal calf serum (FCS), sodium pyruvate, L-glutamine and penicillin/streptomycin. n-Docosanol (15 mM) or the corresponding Pluronic F-68 control (0.6 mM) was added (total volume=2.0 ml). Cells were harvested after incubation for 72 and 168 hours at 37° C. in a humidified 10% CO2 incubator. The number of viable cells was determined by trypan blue staining.
Human fetal lung cells (HFL; ATCC CCL 153) and keloid cells (5×10^4 cells/well) were separately added to 16 mm wells and treated as described in Example 1. The results are shown in Tables 2 (keloid cells) and 3 (human fetal lung cells).

[2] = tested on: normal skin fibroblast (ATCC CRL 1900) cells; test: Proliferation study, normal skin fibroblasts (Example 3); format: cell-based
Experimental: (§2) The following experiment examined the effect of n-docosanol on cell proliferation and quantitation of n-[1-^14 C]docosanol binding to keloid, Vero (normal African green monkey kidney; ATCC CCL 81) and normal skin fibroblast (ATCC CRL 1900) cells.
as §1

[3] = tested on: Vero (normal African green monkey kidney; ATCC CCL 81) cells; test: Proliferation study, Vero cells (Example 3); format: cell-based; conditions: 3 mM
Experimental: as §2, §1

[4] = tested on: normal skin fibroblast (ATCC CRL 1900) cells; test: Radiolabeled n-docosanol binding to normal skin fibroblasts (Example 3); format: cell-based; conditions: Table 4, n-[1-14C]docosanol 3 mM, 24 hours
Experimental: as §2
as §1, with “Samples were corrected for nonspecific binding to plates by subtracting values obtained in control wells lacking cells. To determine cell number, duplicate plates were treated with non-radiolabeled n-docosanol or control suspension at the same concentration or were left untreated.” left out

Human keloid fibroblasts [5] = test: Radiolabeled n-docosanol binding to keloid cells (Example 3); format: cell-based; conditions: 24 hours
Experimental: as §1

[6] = tested on: Vero (normal African green monkey kidney; ATCC CCL 81) cells; test: Radiolabeled n-docosanol binding to Vero cells (Example 3); format: cell-based; conditions: Table 4, n-[1-14C]docosanol 3 mM, 24 hours
Experimental: as §2
as §1, with “Samples were corrected for nonspecific binding to plates by subtracting values obtained in control wells lacking cells. To determine cell number, duplicate plates were treated with non-radiolabeled n-docosanol or control suspension at the same concentration or were left untreated.” left out

SMILES: CCCCCCCCCCCCCCCCCCCCCCO [n-docosanol]
- inhibition at 3000 µM (Human keloid fibroblasts [1]; Homo sapiens, Fibroblast, 24 h, one day incubation, read-out: reduction of number of keloid cells): 57%
- activity at 3000 µM (Human keloid fibroblasts [1]; Homo sapiens, Fibroblast, Table 4, Keloid, 24 hours, compared to cells incubated with no addition, read-out: % ctrl): 43%
- No. cells (Human keloid fibroblasts [1]; Table 4, Keloid, 24 hours): 1.6 × 10^5 cells
- inhibition at 15000 µM (keloid cells; 72 hours): 36%
- inhibition at 15000 µM (keloid cells; 168 hours): 85%
- activity at 15000 µM (keloid cells; 72 hours): 64%
- activity at 15000 µM (keloid cells; 168 hours): 15%
- cells/well (keloid cells; 72 hours): 1.1 × 10^4 cells/well
- cells/well (keloid cells; 168 hours): 0.4 × 10^4 cells/well
- number of CRL-1900 normal skin fibroblasts (in words) ([2]; 3 mM, one day incubation): not decreased
- activity at 3000 µM ([2]; Skin fibroblast, Table 4, CRL-1900, 3 mM, 24 hours, compared to cells incubated with no addition, read-out: % ctrl): 98%
- No. cells ([2]; Table 4, CRL-1900, 3 mM, 24 hours): 5.4 × 10^5 cells
- growth of normal cells (in words) ([2]; under the tissue culture conditions used, general statement on normal cells): unaffected
- number of Vero cells (in words) ([3]; one day incubation): not decreased
- activity at 3000 µM ([3]; Chlorocebus sabaeus, Table 4, Vero, 24 hours, compared to cells incubated with no addition, read-out: % ctrl): 151%
- No. cells ([3]; Table 4, Vero, 24 hours): 5.9 × 10^5 cells
- Binding per 10^6 cells [4]: 15.6 μg
- amount of radiolabeled n-docosanol bound to keloid as compared to CRL 1900 cells (Human keloid fibroblasts [5]; 3 mM, vs CRL 1900): About three
- Binding per 10^6 cells (Human keloid fibroblasts [5]; Table 4, Keloid, n-[1-14C]docosanol 3 mM): 45.5 μg
- Binding per 10^6 cells [6]: 8.9 μg
